Results on ten compounds are retold here after US10239832B2, “N-(1-hydroxy-3-(pyrrolidinyl)propan-2-yl)pyrrolidine-3-carboxamide derivatives as glucosylceramide synthase inhibitors” (BIOMARIN PHARMACEUTICAL INC., priority 2013, dated 2019).

This assay concerns the target T1, GCS (Canis lupus familiaris, UniProt A0A8I3MXG6).
T1 construct: endogenous in cells; host or cells: MDCK (Madin-Darby canine kidney) cells, whole-cell lysate
T1 sequence (A0A8I3MXG6 1-394): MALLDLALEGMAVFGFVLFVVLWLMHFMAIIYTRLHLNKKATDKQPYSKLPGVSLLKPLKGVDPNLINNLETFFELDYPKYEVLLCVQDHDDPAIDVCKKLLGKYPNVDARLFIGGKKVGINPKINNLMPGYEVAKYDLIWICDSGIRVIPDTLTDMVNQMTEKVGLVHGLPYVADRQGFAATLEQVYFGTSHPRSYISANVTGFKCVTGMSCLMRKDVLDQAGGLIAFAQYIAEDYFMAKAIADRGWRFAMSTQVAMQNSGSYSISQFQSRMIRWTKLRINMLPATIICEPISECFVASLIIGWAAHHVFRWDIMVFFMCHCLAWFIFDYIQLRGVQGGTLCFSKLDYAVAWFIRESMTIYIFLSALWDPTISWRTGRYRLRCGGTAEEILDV
Description: GCS enzymatic assay (MDCK cell lysate, NBD-ceramide to glucosylceramide, LC/MS). To be noted: Table 2, the table does not say which of the assays; for IC50: class symbols A, B, C, read-out: Data Range (IC50 values); for Data Range (% inhibition): class symbols D, E, F, NA (not active). The format is biochemical, canine. The gist of the method: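 Dog MDCK cell lysate served as enzyme source, with NBD-ceramide turned over to glucosylceramide and 0.1% DMSO as mock control. The reaction was stopped with acetonitrile. Both lipids were quantified by LC/MS/MS in ESI positive MRM mode against a tolbutamide internal standard, giving IC50 or percent inhibition.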

In general, IC50 refers to the concentration at which inhibition is half-maximal. Take `O=C(N[C@H](CN1CCCC1)[C@H](O)c1cc2c(c(C(F)(F)F)c1)OCCO2)[C@@H]1CCN(c2ccc(Cl)cc2)C1` [Compound 137, (R)-1-(4-chlorophenyl)-N-((1R,2R)-1-hydroxy-3-(pyrrolidin-1-yl)-1-(8-(trifluoromethyl)-2,3-dihydrobenzo[b][1,4]dioxin-6-yl)propan-2-yl)pyrrolidine-3-carboxamide]: the IC50 is 30 to 100 nM.

For the compound `O=C(N[C@H](CN1CCCC1)[C@H](O)c1ccc2c(c1)OCCO2)[C@@H]1CCN(C(=O)c2ccccc2)C1` [Compound 121, (R)-1-benzoyl-N-((1R,2R)-1-(2,3-dihydrobenzo[b][1,4]dioxin-6-yl)-1-hydroxy-3-(pyrrolidin-1-yl)propan-2-yl)pyrrolidine-3-carboxamide], the “Data Range (% inhibition)” value is recorded as “NA (not active—a negative value was generated for % inhibition)”.

On to `Cn1ncc2ccc(N3CC[C@H](C(=O)N[C@H](CN4CCCC4)[C@H](O)c4ccc5c(c4)OCCO5)C3)cc21` [Compound 61D, (S)-N-((1R,2R)-1-(2,3-dihydrobenzo[b][1,4]dioxin-6-yl)-1-hydroxy-3-(pyrrolidin-1-yl)propan-2-yl)-1-(1-methyl-1H-indazol-6-yl)pyrrolidine-3-carboxamide], for which the IC50 lay within 1 to 30 nM.

For `O=C(N[C@H](CN1CCCC1)[C@H](O)c1ccc(OC2CC2)nc1)[C@H]1CCN(c2ccc(Cl)cc2)C1` [Compound 13C, (S)-1-(4-chlorophenyl)-N-((1R,2R)-1-(6-cyclopropoxypyridin-3-yl)-1-hydroxy-3-(pyrrolidin-1-yl)propan-2-yl)pyrrolidine-3-carboxamide], the “Data Range (% inhibition)” value is given as “F (1-49% (or less than 50%))”.

As for `O=C(N[C@H](CN1CCCC1)[C@H](O)c1ccc(OCCN2CCC2)c(Cl)c1)[C@H]1CCN(c2ccc(Cl)cc2)C1` [Compound 60A, (S)-N-((1R,2R)-1-(4-(2-(azetidin-1-yl)ethoxy)-3-chlorophenyl)-1-hydroxy-3-(pyrrolidin-1-yl)propan-2-yl)-1-(4-chlorophenyl)pyrrolidine-3-carboxamide], the “Data Range (% inhibition)” value is listed as “NA (not active—a negative value was generated for % inhibition)”.

Take `O=C(N[C@H](CN1CCCC1)[C@H](O)c1ccc(OC2CC2)c(Cl)c1)[C@@H]1CCN(c2cccc(Oc3ccccn3)c2)C1` [Compound 75, (R)-N-((1R,2R)-1-(3-chloro-4-cyclopropoxyphenyl)-1-hydroxy-3-(pyrrolidin-1-yl)propan-2-yl)-1-(3-(pyridin-2-yloxy)phenyl)pyrrolidine-3-carboxamide]: the 50% inhibitory concentration (IC50) lay within 1 to 30 nM.

On to `O=C(N[C@H](CN1CCC1)[C@H](O)c1ccc2c(c1)OCCO2)[C@@H]1CCN(c2ccc(Cl)cc2)C1` [Compound 78, (R)-N-((1R,2R)-3-(azetidin-1-yl)-1-(2,3-dihydrobenzo[b][1,4]dioxin-6-yl)-1-hydroxypropan-2-yl)-1-(4-chlorophenyl)pyrrolidine-3-carboxamide], for which the IC50 is 1 to 30 nM.

For `Cc1ccc(N2CC[C@@H](C(=O)N[C@H](CN3CCCC3)[C@H](O)c3ccc(OC4CC4)c(Cl)c3)C2)cc1` [Compound 153, (R)-N-((1R,2R)-1-(3-chloro-4-cyclopropoxyphenyl)-1-hydroxy-3-(pyrrolidin-1-yl)propan-2-yl)-1-(p-tolyl)pyrrolidine-3-carboxamide], the IC50 was 1 to 30 nM.

`O=C(N[C@H](CN1CCCC1)[C@H](O)c1ccc(OC2CC2)c(Cl)c1)[C@@H]1CCN(c2ccc(Cl)cn2)C1` [Compound 57, (R)-N-((1R,2R)-1-(3-chloro-4-cyclopropoxyphenyl)-1-hydroxy-3-(pyrrolidin-1-yl)propan-2-yl)-1-(5-chloropyridin-2-yl)pyrrolidine-3-carboxamide]: the “Data Range (% inhibition)” value is “F (1-49% (or less than 50%))”.

Take `O=C(N[C@H](CN1CCCC1)[C@H](O)c1ccc(OC2CC2)nc1)[C@@H]1CCN(c2ccc(Cl)cc2)C1` [Compound 13, (R)-1-(4-chlorophenyl)-N-((1R,2R)-1-(6-cyclopropoxypyridin-3-yl)-1-hydroxy-3-(pyrrolidin-1-yl)propan-2-yl)pyrrolidine-3-carboxamide]: the half-inhibitory concentration (IC50) was 30 to 100 nM.
